Values joined by “and” are separate entries in the source; they are usually repeats but may differ in a detail not shown here. Equal values may be shown once.
Legend:
CK1δ = tested on: CK1δ; set-up: method as in PMID 20577972; conditions: standards; cited from earlier work
[1] = biological target: T1, Human recombinant Casein Kinase 1 delta (CK1δ) (Homo sapiens, UniProt P48730); experiment: CK-1δ Kinase-Glo assay; format: biochemical; conditions: for IC50: human recombinant enzyme, mean of two independent experiments, read-out: IC50 CK1δ (µM ± SD); for CK1δ inhibition (value in parentheses): screening at fixed concentration of 10 µM
T1 construct: purchased Millipore (Millipore Iberica S.A.U.)
Protocol: (§1) The Kinase-Glo Kit was purchased from Promega (Promega Biotech Ibérica, SL) and was used to screen compounds for activity against CK-1δ and CK1ε. Human recombinant Casein Kinase 1 delta and epsilon was purchased from Millipore (Millipore Iberica S.A.U.). Casein solution from bovine milk, 5%, was purchased from Sigma-Aldrich (St. Louis, MO, USA). ATP and all other reagents were from Sigma-Aldrich (St. Louis, MO, USA). Kinase-Glo assays were performed in assay buffer using black 96-well plates. In a typical assay, 10 µL of test compound (dissolved in DMSO at 1 mM concentration and diluted in advance in assay buffer to the desired concentration) 10 µL (16 ng) of enzyme were added to each well followed by 20 µL of assay buffer containing 0.1% casein as substrate and 4 µM ATP. […] After 60 min incubation at 30 °C the enzymatic reaction was stopped with 40 µL of Kinase-Glo reagent. Glow-type luminescence was recorded after 10 min using a FLUOstar Optima (BMG Labtechnologies GmbH, Offenburg, Germany) multimode reader. The activity is proportional to the difference of the total and consumed ATP. The inhibitory activities were calculated on the basis of maximal activities measured in the absence of inhibitor. […] Each value is the mean of two independent experiments.
Compounds were screened against human recombinant enzyme CK1δ at a fixed concentration of 10 µM.

[2] = biological target: T2, Human recombinant Casein Kinase 1 epsilon (CK1ε) (Homo sapiens, UniProt P49674); experiment: CK-1ε Kinase-Glo assay; format: biochemical; conditions: for IC50: human recombinant enzyme, mean of two independent experiments, read-out: IC50 CK1ε (µM ± SD)
T2 construct: purchased Millipore (Millipore Iberica S.A.U.)
Protocol: as §1, with “experiments. […]” for “experiments.”

[3] = biological target: amyloid-beta binding alcohol dehydrogenase (ABAD); set-up: method as in PMID 27287370; conditions: cited from earlier work
PAMPA-BBB assay = conditions: for Pe (10^−6 cm s^−1): 2.5 h
Protocol: Prediction of the BBB penetration was evaluated using a parallel artificial membrane permeability assay (PAMPA) using the setup according to Di et al.[12]. Ten commercial drugs, phosphate buffer saline solution at pH 7.4 (PBS), Ethanol and dodecane were purchased from Sigma, Acros organics, Merck, Aldrich and Fluka. […] Filter PDVF membrane units (diameter 30 mm, pore size 0.45 µm) from Symta were used to filtered the samples. A 96-well plate UV reader (Thermo Scientific, Multiskan spectrum) was used for the UV measurements. […] About 100 µL of this compound stock solution was taken and […] of EtOH and 3500 µL of PBS pH = 7.4 buffer were added to reach 30% of EtOH concentration in the experiment. These solutions were filtered. The acceptor 96-well microplate was filled with 180 µL of PBS/EtOH (70/30). The donor 96-well plate was coated with 4 µL of porcine brain lipid in dodecane (20 mg mL^−1) and after 5 min, 180 µL of each compound solution was added. About 1–2 mg of every compound to be determined their ability to pass the brain barrier were dissolved in 1500 µL of EtOH and 3500 µL of PBS pH = 7.4 buffer, filtered and then added to the donor 96-well plate. Then the donor plate was carefully put on the acceptor plate to form a “sandwich”, which was left undisturbed for 2 h and 30 min at 25 °C. During this time the compounds diffused from the donor plate through the brain lipid membrane into the acceptor plate. After incubation, the donor plate was removed. UV plate reader determined the concentration of compounds and commercial drugs in the acceptor and the donor wells. Every sample was analysed at three to five wavelengths, in three wells and in two independent runs. […] 10 quality control compounds (previously mentioned) of known BBB permeability were included in each experiment to validate the analysis set.
Parallel Artificial Membrane Permeability Assay (PAMPA) is technique developed to predict passive permeability through biological membranes. […] An assay validation was made comparing the reported permeability values of commercial drugs with the experimental data obtained employing this methodology.

CK1ε = tested on: CK1ε; set-up: method as in PMID 20577972; conditions: standards; cited from earlier work

T1 sequence (P48730 whole entry): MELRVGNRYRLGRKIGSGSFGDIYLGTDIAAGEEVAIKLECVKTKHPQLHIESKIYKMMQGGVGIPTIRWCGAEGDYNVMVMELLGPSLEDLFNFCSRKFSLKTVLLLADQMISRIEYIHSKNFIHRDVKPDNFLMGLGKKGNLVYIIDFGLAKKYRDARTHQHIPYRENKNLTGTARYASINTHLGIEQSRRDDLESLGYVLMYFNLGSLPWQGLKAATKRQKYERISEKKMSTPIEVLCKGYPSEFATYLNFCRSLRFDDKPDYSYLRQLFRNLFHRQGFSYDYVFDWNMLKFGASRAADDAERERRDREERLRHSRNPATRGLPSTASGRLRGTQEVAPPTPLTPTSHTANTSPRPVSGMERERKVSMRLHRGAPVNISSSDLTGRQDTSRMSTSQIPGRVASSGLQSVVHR
T2 sequence (P49674 whole entry): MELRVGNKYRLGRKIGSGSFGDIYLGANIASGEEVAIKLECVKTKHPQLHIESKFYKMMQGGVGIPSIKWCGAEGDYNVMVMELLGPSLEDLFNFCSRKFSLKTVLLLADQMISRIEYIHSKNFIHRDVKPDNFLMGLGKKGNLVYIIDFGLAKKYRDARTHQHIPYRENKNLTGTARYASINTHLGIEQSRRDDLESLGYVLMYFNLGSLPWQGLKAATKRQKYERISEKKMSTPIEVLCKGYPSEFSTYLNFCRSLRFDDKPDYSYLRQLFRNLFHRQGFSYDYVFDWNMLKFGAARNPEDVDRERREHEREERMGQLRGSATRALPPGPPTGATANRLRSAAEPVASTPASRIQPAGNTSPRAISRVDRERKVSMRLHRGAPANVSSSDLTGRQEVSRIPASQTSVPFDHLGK

Compound	IC50 [1]	SI (Selectivity index = IC50CK1ε/IC50CK1δ) [1]	IC50 [2]	further results
O=C(Nc1ccc(O)cc1)Nc1nc2ccc(F)cc2s1 [Compound K684]	1.37 ± 0.23 µM	–	–	–
O=C(Nc1ccc(O)cc1)Nc1nc2ccc(Cl)cc2s1 [Compound K685]	0.59 ± 0.06 µM	15.3	9.01 ± 0.37 µM	–
O=C(Nc1cccc(O)c1)Nc1nc2ccc(F)cc2s1 [Compound K686]	0.86 ± 0.1 µM	4.7	4.02 ± 0.16 µM	–
O=C(Nc1cccc(O)c1)Nc1nc2ccc(Cl)cc2s1 [Compound K687]	–	12.0	~2 µM and 1.92 µM	–
O=C(Nc1nc2ccc(F)cc2s1)Nc1ccccc1O [Compound K688]	0.9 ± 0.14 µM	8.1	7.33 ± 0.29 µM	–
O=C(Nc1nc2ccc(Cl)cc2s1)Nc1ccccc1O [Compound K689]	< 0.5 µM and 0.48 µM	8.1	3.91 ± 0.4 µM	–
O=C(Nc1ccc(O)c(Cl)c1)Nc1nc2ccc(F)cc2s1 [Compound K690]	0.84 ± 0.16 µM	12.0	10.1 ± 0.74 µM	IC50 [3]: 1.89 µM; ability to cross the BBB (in words) (PAMPA-BBB assay): able to cross the BBB by passive permeation; Pe (10^−6 cm s^−1) (PAMPA-BBB assay; pig, pH 7.4): 13.2 ± 1.4 10^−6 cm s^−1
O=C(Nc1ccc(O)c(Cl)c1)Nc1nc2ccc(Cl)cc2s1 [Compound K691]	0.73 ± 0.21 µM	4.1	3.01 ± 0.33 µM	IC50 [3]: 1.67 µM; ability to cross the BBB (in words) (PAMPA-BBB assay): able to cross the BBB by passive permeation; Pe (10^−6 cm s^−1) (PAMPA-BBB assay; pig, pH 7.4): 14 ± 2 10^−6 cm s^−1
O=C(Nc1ccc(O)c(C(=O)O)c1)Nc1nc2ccc(F)cc2s1 [Compound K692]	0.91 ± 0.31 µM	9.2	8.41 ± 0.71 µM	–
O=C(Nc1ccc(O)c(C(=O)O)c1)Nc1nc2ccc(Cl)cc2s1 [Compound K693]	< 0.5 µM and 0.4 µM	5.7	~2 µM and 2.29 µM	–
COc1ccc(NC(=O)Nc2nc3ccc(F)cc3s2)cc1 [Compound K694]	7.38 ± 0.93 µM	–	–	–
COc1ccc(NC(=O)Nc2nc3ccc(Cl)cc3s2)cc1 [Compound K695]	8.87 ± 0.73 µM	–	–	–
COc1ccc(NC(=O)Nc2nc3ccc(F)cc3s2)cc1OC [Compound K696]	> 10 µM	–	–	CK1δ inhibition (value in parentheses) [1]: 23%
COc1ccc(NC(=O)Nc2nc3ccc(Cl)cc3s2)cc1OC [Compound K697]	0.69 ± 0.19 µM	>14.5	> 10 µM	CK1ε inhibition (value in parentheses) ([2]; printed beside IC50 >10 µM): 26%
COc1ccc(NC(=O)Nc2nc3ccc(F)cc3s2)cc1C(=O)O [Compound K698]	3.37 ± 0.4 µM	–	–	–
COc1cc(OC)c(C=C2C(O)=Nc3ccccc32)c(OC)c1 [IC261]	–	–	–	IC50 (CK1δ): 1 µM; IC50 (CK1ε): 1 µM
CN(C)CCCN1c2ccccc2Sc2ccccc21 [promazine, reference compound]	–	–	–	Papp at 2.5 h (PAMPA-BBB assay; pig, pH 7.4): 81 ± 1 nm/s

Further lines, with some results ahead:

IC50 [1]	SI (Selectivity index = IC50CK1ε/IC50CK1δ) [1]	IC50 [2]	Compound	further results
< 0.5 µM and 0.46 µM	7.6	3.49 ± 0.09 µM	COc1ccc(NC(=O)Nc2nc3ccc(Cl)cc3s2)cc1C(=O)O [Compound K699]	–
> 10 µM	–	–	O=C(Nc1ccc(Oc2ccccc2)cc1)Nc1nc2ccc(F)cc2s1 [Compound K700]	CK1δ inhibition (value in parentheses) [1]: 36%
> 10 µM	–	–	O=C(Nc1ccc(Oc2ccccc2)cc1)Nc1nc2ccc(Cl)cc2s1 [Compound K701]	CK1δ inhibition (value in parentheses) [1]: 37%
2.99 ± 0.36 µM	–	–	O=C(Nc1ccc(C(=O)O)cc1)Nc1nc2ccc(F)cc2s1 [Compound K702]	–
< 0.5 µM and 0.3 µM	12.3	3.69 ± 0.41 µM	O=C(Nc1ccc(C(=O)O)cc1)Nc1nc2ccc(Cl)cc2s1 [Compound K703]	–
> 10 µM	–	–	CCOC(=O)c1ccc(NC(=O)Nc2nc3ccc(F)cc3s2)cc1 [Compound K704]	CK1δ inhibition (value in parentheses) [1]: 31%
> 10 µM	–	–	CCOC(=O)c1ccc(NC(=O)Nc2nc3ccc(Cl)cc3s2)cc1 [Compound K705]	CK1δ inhibition (value in parentheses) [1]: 45%
> 10 µM	–	–	COC(=O)c1ccc(NC(=O)Nc2nc3ccc(F)cc3s2)cc1 [Compound K706]	CK1δ inhibition (value in parentheses) [1]: 48%
8.73 ± 0.71 µM	–	–	COC(=O)c1ccc(NC(=O)Nc2nc3ccc(Cl)cc3s2)cc1 [Compound K707]	–
> 10 µM	–	–	CC(=O)Nc1ccc(NC(=O)Nc2nc3ccc(F)cc3s2)cc1 [Compound K708]	CK1δ inhibition (value in parentheses) [1]: 39%
1.32 ± 0.15 µM	–	–	CC(=O)Nc1ccc(NC(=O)Nc2nc3ccc(Cl)cc3s2)cc1 [Compound K709]	–
> 10 µM	–	–	COC(=O)c1cc(NC(=O)Nc2nc3ccc(F)cc3s2)ccc1O [Compound K710]	CK1δ inhibition (value in parentheses) [1]: 24%
9.98 ± 0.96 µM	–	–	COC(=O)c1cc(NC(=O)Nc2nc3ccc(Cl)cc3s2)ccc1O [Compound K711]	–

Source: publication PMC6009902, “1-(Benzo[d]thiazol-2-yl)-3-phenylureas as dual inhibitors of casein kinase 1 and ABAD enzymes for treatment of neurodegenerative disorders” (Journal of Enzyme Inhibition and Medicinal Chemistry, 2018)
